In patent publication US10285989B2, “Pyrimidinone amide compounds as PDE2 inhibitors” (Merck Sharp & Dohme Corp., priority 2015, dated 2019) one finds Ki and efflux ratio data, which are given here for ten compounds.

One data set concerns the target human PDE2A1 (Homo sapiens (Human), UniProt O00408). As to the kind of experiment: PDE2 IMAP FP inhibition assay, human PDE2A1 (selectivity panel format). The data set is classed as biochemical. An outline of the steps: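 Enzyme dosed to give about 20% substrate turnover acts for 60 min at room temperature on 50 nM FAM-cAMP plus 1000 nM cGMP (Tris pH 7.2, MgCl2, DTT, Tween-20 buffer). IMAP binding solution then stops the reaction; after 1 h, polarization is measured from parallel and perpendicular fluorescence.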

A further data set concerns the target Rhesus PDE2A3 (Macaca mulatta, UniProt B3VTJ2). As to the kind of experiment: PDE2 fluorescence polarization (IMAP FP) inhibition assay, rhesus PDE2A3. The data set is classed as biochemical, rhesus macaque.
The target of a further data set is P-glycoprotein (P-gp) (Homo sapiens (Human), UniProt P08183). As to the kind of experiment: P-gp transport, experimental BA/AB ratio, human. The data set is classed as in vitro ADME. The following applies: LLC-PK1, 1 μM substrate concentration. An excerpt:
(§1) See Doan et al. “Passive permeability and P-glycoprotein-mediated efflux differentiate central nervous system (CNS) and non-CNS marketed drugs”, J. Pharm. Exper. […] Desirable human BA/AB ratio is less than 2.0. […] See, for example, Desai, et al. Integration of in Silico and in Vitro Tools for Scaffold Optimization during Drug Discovery: Predicting P-glycoprotein Efflux” Mol. Pharmac.

Data set [1] deals with P-glycoprotein (P-gp, rat Mdr1a) (Rattus norvegicus, UniProt Q6PSM0). As to the kind of experiment: P-gp transport, experimental BA/AB ratio, rat LLC-Mdr1a. Type of data set: in vitro ADME. The following applies: LLC-PK1; rat LLC-Mdrla; 1 μM substrate concentration.
Sequence of P-glycoprotein (P-gp, rat Mdr1a) (Q6PSM0 1-1272): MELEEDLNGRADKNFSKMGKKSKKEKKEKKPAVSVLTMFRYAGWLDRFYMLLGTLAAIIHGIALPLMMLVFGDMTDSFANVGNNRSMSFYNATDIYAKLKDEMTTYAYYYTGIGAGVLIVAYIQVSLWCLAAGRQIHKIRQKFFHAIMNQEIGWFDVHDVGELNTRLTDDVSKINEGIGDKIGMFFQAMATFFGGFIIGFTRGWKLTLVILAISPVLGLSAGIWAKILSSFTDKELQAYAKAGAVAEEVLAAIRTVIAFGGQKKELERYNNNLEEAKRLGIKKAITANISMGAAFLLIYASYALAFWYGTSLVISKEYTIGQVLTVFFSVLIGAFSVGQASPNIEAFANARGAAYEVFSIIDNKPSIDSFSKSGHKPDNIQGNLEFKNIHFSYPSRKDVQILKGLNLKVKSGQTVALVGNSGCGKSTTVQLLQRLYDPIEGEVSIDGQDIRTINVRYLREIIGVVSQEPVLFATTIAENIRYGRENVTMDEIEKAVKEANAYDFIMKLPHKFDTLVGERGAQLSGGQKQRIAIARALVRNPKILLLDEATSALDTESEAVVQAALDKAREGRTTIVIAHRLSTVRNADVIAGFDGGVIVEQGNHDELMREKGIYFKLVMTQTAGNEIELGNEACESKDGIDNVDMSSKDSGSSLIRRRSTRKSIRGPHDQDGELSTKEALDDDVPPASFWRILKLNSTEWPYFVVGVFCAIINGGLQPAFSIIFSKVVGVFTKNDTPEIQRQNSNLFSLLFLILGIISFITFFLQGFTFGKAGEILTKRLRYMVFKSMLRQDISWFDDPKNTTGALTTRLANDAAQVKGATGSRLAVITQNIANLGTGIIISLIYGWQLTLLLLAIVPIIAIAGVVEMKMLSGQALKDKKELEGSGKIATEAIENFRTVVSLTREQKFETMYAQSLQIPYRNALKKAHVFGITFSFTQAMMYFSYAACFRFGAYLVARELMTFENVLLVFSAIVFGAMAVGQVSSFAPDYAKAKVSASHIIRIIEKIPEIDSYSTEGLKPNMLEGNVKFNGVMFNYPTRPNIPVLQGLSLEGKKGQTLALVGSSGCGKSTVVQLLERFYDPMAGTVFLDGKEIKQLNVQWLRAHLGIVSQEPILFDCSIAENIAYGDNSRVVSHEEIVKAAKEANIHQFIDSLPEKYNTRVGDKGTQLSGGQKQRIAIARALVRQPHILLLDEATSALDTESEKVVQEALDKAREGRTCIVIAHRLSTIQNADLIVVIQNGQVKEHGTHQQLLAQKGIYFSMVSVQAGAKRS
Description: as §1

Setting [2] is: Lab B, read-out: Human PDE2 Ki (nM) - Lab B.
The mark [3] stands for this setting: Lab B, read-out: Rhesus PDE2 Ki (nM) - Lab B.
Where [4] appears, read: Lab A, read-out: Human PDE2 Ki (nM) - Lab A.
[5] abbreviates: Lab A, read-out: Rhesus PDE2 Ki (nM) - Lab A.

Read-outs that look alike come from different tables or passages of the source.

Sequence of human PDE2A1 (O00408 other isoform, or with tags, fused parts or gaps): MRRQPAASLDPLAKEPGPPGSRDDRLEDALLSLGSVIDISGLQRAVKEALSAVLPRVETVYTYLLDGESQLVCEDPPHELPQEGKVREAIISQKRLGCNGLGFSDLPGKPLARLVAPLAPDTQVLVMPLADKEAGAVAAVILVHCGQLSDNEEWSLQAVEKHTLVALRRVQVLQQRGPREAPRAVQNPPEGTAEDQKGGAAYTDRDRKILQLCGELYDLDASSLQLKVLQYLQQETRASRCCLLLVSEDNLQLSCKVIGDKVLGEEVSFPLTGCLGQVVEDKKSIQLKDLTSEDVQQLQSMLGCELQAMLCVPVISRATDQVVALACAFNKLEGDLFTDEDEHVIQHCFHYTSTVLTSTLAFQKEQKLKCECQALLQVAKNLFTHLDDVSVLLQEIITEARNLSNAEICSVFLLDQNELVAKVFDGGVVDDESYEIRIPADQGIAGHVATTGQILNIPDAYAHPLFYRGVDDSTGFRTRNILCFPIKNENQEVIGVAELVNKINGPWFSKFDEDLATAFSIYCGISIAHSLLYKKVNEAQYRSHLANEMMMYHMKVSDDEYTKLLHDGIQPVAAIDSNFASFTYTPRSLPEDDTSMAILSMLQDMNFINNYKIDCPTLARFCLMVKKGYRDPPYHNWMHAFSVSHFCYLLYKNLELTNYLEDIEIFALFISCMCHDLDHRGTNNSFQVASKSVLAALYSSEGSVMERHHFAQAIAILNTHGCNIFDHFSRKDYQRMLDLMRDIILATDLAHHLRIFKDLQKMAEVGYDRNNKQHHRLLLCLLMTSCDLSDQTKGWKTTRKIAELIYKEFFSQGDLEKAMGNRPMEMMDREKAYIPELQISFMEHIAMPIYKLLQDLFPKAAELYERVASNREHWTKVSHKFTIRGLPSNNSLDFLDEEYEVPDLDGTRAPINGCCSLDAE
Sequence of Rhesus PDE2A3 (B3VTJ2 1-941): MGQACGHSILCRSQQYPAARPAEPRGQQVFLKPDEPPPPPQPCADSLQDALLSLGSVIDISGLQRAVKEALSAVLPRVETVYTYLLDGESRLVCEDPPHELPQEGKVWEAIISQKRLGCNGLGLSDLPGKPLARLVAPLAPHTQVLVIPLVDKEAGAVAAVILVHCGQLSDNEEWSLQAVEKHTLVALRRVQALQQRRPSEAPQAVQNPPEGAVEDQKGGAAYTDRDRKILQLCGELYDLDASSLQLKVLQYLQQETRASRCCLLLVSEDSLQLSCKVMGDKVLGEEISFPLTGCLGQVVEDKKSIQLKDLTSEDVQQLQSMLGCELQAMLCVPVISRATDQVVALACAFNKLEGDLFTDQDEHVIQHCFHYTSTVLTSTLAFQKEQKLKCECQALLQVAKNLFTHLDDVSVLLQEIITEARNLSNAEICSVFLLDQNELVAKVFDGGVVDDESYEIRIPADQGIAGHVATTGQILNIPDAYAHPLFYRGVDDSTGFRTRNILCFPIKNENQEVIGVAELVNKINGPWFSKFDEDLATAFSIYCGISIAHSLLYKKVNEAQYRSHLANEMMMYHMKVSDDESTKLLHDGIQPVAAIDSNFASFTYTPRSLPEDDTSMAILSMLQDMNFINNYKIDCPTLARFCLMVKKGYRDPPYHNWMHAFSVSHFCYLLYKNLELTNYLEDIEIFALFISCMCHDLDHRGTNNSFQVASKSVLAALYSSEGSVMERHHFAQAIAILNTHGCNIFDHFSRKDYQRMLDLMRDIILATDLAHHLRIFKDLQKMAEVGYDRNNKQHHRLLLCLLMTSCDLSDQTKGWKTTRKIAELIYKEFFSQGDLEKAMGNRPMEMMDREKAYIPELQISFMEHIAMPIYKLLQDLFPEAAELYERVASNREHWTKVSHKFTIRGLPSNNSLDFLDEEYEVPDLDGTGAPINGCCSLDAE
Sequence of P-glycoprotein (P-gp) (P08183 whole entry): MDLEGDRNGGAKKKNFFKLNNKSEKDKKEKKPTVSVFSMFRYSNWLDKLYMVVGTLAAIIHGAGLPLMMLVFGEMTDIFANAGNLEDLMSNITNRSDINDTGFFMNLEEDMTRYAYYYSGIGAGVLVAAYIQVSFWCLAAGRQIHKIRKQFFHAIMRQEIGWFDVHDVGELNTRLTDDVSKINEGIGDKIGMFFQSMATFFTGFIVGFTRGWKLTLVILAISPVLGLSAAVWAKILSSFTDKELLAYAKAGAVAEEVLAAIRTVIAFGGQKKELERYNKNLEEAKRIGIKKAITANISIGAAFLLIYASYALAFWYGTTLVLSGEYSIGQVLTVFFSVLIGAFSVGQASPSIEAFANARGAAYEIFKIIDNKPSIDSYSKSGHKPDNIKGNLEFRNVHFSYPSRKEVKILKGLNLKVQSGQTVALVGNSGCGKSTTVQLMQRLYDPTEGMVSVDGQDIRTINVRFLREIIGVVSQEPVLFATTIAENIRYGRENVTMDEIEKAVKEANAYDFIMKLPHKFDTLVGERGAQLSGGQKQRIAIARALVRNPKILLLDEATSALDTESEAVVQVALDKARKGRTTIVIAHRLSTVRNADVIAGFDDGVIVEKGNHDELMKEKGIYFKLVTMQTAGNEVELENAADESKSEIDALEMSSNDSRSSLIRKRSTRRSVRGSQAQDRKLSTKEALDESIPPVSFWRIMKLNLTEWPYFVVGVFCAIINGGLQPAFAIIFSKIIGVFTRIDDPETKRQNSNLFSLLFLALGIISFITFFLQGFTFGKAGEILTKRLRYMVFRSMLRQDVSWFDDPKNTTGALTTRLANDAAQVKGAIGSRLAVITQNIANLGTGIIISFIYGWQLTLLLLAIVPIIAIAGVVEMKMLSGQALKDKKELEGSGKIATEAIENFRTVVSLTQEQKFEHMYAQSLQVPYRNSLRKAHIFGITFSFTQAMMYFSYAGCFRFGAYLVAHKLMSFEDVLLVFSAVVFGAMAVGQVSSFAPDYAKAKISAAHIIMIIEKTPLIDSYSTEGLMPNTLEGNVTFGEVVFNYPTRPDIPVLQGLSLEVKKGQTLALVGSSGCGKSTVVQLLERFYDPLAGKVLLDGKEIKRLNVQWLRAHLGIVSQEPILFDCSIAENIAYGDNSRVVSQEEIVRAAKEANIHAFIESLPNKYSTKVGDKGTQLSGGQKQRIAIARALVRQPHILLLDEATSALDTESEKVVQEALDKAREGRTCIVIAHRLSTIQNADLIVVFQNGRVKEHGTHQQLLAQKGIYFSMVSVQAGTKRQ

Take `CN(C)c1nc(C(=O)N[C@@H](c2ccc(C3CC3)cc2)C2CC2)cc(=O)[nH]1` [Example 115, N-[(R)-cyclopropyl(4-cyclopropylphenyl)methyl]-2-(dimethylamino)-6-oxo-1,6-dihydropyrimidine-4-carboxamide]: the Ki (usually a measure of affinity in units of concentration, obtained from inhibition or displacement) at human PDE2A1 (setting [2]) is 0.76 nM; at Rhesus PDE2A3 (setting [3]), 1 nM. In addition, the efflux ratio (as a rule, the permeability from basolateral to apical divided by that in the opposite direction, in the common usage) at 1 μM at P-glycoprotein (P-gp) turned out to be 0.3.

For `CN(C)c1nc(C(=O)N[C@@H](c2ccc(S(F)(F)(F)(F)F)cc2)C(C)(C)C)cc(=O)[nH]1` [Example 38, 2-(dimethylamino)-N-{(1R)-2,2-dimethyl-1-[4-(pentafluoro-λ^6-sulfanyl)phenyl]propyl}-6-oxo-1,6-dihydropyrimidine-4-carboxamide], the Ki on human PDE2A1 (setting [2]) worked out at 0.14 nM; at Rhesus PDE2A3 (setting [3]) it was 0.11 nM. Further, at P-glycoprotein (P-gp), the efflux ratio at 1 μM stood at 1.

With `CC(C)(C)[C@@H](NC(=O)c1cc(=O)[nH]c(N)n1)c1ccc(C(F)(F)F)cc1` [Example 157, 2-amino-N-{(1R)-2,2-dimethyl-1-[4-(trifluoromethyl)phenyl]propyl}-6-oxo-1,6-dihydropyrimidine-4-carboxamide], the Ki at human PDE2A1 (setting [2]) came to 6.3 nM. The efflux ratio at 1 μM in data set [1] worked out at 34; at P-glycoprotein (P-gp) it was 13.9.

For `CNc1nc(C(=O)N[C@@H](c2ccc(C(F)(F)F)cc2)C(C)(C)C)cc(=O)[nH]1` [Example 158, N-{(1R)-2,2-dimethyl-1-[4-(trifluoromethyl)phenyl]propyl}-2-(methylamino)-6-oxo-1,6-dihydropyrimidine-4-carboxamide], the Ki on human PDE2A1 (setting [2]) worked out at 0.85 nM. The values for the efflux ratio at 1 μM (in data set [1]; at P-glycoprotein (P-gp)) were 24.4 and 7.8, respectively.

Regarding `CN(C)c1nc(C(=O)N[C@@H](c2ccc(OC(F)F)cc2)C2CC2)cc(=O)[nH]1` [Example 32, N-{(R)-cyclopropyl[4-(difluoromethoxy)phenyl]methyl}-2-(dimethylamino)-6-oxo-1,6-dropyrimidine-4-carboxamide], the Ki at human PDE2A1 (setting [2]) amounted to 5.3 nM; on Rhesus PDE2A3 (setting [3]), 6.4 nM. Moreover, the efflux ratio at 1 μM at P-glycoprotein (P-gp) is 1.1.

Take `CC(C)[C@@H](NC(=O)c1cc(=O)[nH]c(N(C)C)n1)c1ccc(OC(F)F)cc1` [Example 33, N-{(1R)-1-[4-(difluoromethoxy)phenyl]-2-methylpropyl}-2-(dimethylamino)-6-oxo-1,6-dihydropyrimidine-4-carboxamide]: the figures for the Ki at human PDE2A1 (setting [2]) and on Rhesus PDE2A3 (setting [3]) were 2 nM and 2.7 nM, respectively. Also, the efflux ratio at 1 μM on P-glycoprotein (P-gp) amounted to 1.3.

As to `COc1nc(C(=O)N[C@H](C)c2ccc(C(F)(F)F)cc2)cc(=O)[nH]1` [Example 17, (R)-2-methoxy-6-oxo-N-(1-(4-(trifluoromethyl)phenyl)ethyl)-1,6-dihydropyrimidine-4-carboxamide], the values for the Ki at human PDE2A1 (setting [4]) and at Rhesus PDE2A3 (setting [5]) were 115 nM and 130 nM, respectively.

With `C[C@@H](NC(=O)c1cc(=O)[nH]c(N(C)C)n1)c1ccc(OC(F)(F)F)cc1F` [Example 83, 2-(dimethylamino)-N-{(1R)-1-[2-fluoro-4-(trifluoromethoxy)phenyl]ethyl}-6-oxo-1,6-dihydropyrimidine-4-carboxamide], the Ki on human PDE2A1 (setting [2]) is 2.4 nM; on Rhesus PDE2A3 (setting [3]) it was 2.3 nM.

With `C[C@@H](NC(=O)c1cc(=O)[nH]c(N(C)C)n1)c1ccc(OC(F)(F)F)c(Cl)c1` [Example 3, (R)—N-(1-(3-chloro-4-(trifluoromethoxy)phenyl)ethyl)-2-(dimethylamino)-6-oxo-1,6-dihydropyrimidine-4-carboxamide], the figures for the Ki at human PDE2A1 (setting [2]), on Rhesus PDE2A3 (setting [5]) and at Rhesus PDE2A3 (setting [3]) were 1.6 nM, 0.82 nM and 1.5 nM, respectively.

Consider `Cc1ncc2c(n1)CN(c1nc(C(=O)N[C@H](C)c3ccc(C(F)(F)F)cc3)cc(=O)[nH]1)C2` [Example 159, 2-(2-methyl-5,7-dihydro-6H-pyrrolo[3,4-d]pyrimidin-6-yl)-6-oxo-N-{(1R)-1-[4-(trifluoromethyl)phenyl]ethyl}-1,6-dihydropyrimidine-4-carboxamide], for which the Ki was 11 nM at human PDE2A1 (setting [4]) and 18 nM at Rhesus PDE2A3 (setting [5]).
